System: AR
Test: In Vitro AR Agonism Assay
Assay type: cell-based
Details: LNAR reporter cell line, 10% CSS, 18-24 hrs; ratio of maximum response to that of Mifepristone (set to 1)
Procedure: Example 5: In Vitro AR Agonism Assay
The AR agonism assay was done in the LNAR reporter cell line which has overexpressed AR and 4XARE-Luc genes. This cell line is sensitive to even minor partial AR agonism activity in hormone-deprived media (CSS). The assays were done in RPMI (without phenol red)+10% CSS using 6000 LNAR cells/well in 384-well plates and compounds were incubated with cells in […] incubator for 18-24 hrs. OneGlo reagent (25 uL/well) was added and plates were read with luminometer within 3 minutes.
To gauge the AR partial agonism activity, Mifepristone is included as a standard in the assay. AR agonism assay results are quantified by determining the ratio of the maximum response of individual compounds to the maximum response of Mifepristone (arbitrarily set to 1). Values of Table 4 are reported as Relative Maximum Response to Mifepristone. This general trend of AR agonism was shown for the class of compounds described herein.

SMILES	Relative Maximum Response to Mifepristone
C[C@@H]1C[C@H]2[C@@H]3CCC4=CC(=O)CCC4=C3[C@@H](c3ccc(N(C)C)cc3)C[C@]2(C)[C@]1(O)C#CC(C)(C)C [drawing 379]	A (A: ≤0.4)
CN(C)c1ccc([C@H]2C[C@@]3(C)[C@@H](CC[C@@]3(O)C#Cc3ccccc3)[C@@H]3CCC4=CC(=O)CCC4=C32)cc1 [drawing 366]	A (A: ≤0.4)
CN(C)c1ccc([C@H]2C[C@@]3(C)[C@@H](CC[C@@]3(O)C#CC3CC3)[C@@H]3CCC4=CC(=O)CCC4=C32)c(F)c1F [drawing 375]	A (A: ≤0.4)
CN(C)c1ccc([C@H]2C[C@@]3(C)[C@@H](CC[C@@]3(O)C#Cc3ccc(S(C)(=O)=O)cc3)[C@@H]3CCC4=CC(=O)CCC4=C32)cc1 [drawing 383]	B (B: >0.4)
Cc1cc([C@H]2C[C@@]3(C)[C@@H](CC[C@@]3(O)C#CC(C)(C)C)[C@@H]3CCC4=CC(=O)CCC4=C32)ccc1N(C)C [drawing 371]	A (A: ≤0.4)
CC(C)(C)C#C[C@]1(O)CC[C@H]2[C@@H]3CCC4=CC(=O)CCC4=C3[C@@H](c3ccc(N4CCC[C@@H]4CO)cc3)C[C@@]21C [drawing 385]	A (A: ≤0.4)
CC(C)(C)C#C[C@]1(O)CC[C@H]2[C@@H]3CCC4=CC(=O)CCC4=C3[C@@H](c3ccc(N4CCCC4)cc3)C[C@@]21C [drawing 368]	A (A: ≤0.4)
CN(C)c1ccc([C@H]2C[C@@]3(C)[C@@H](CC[C@@]3(O)C#CC(C)(C)C)[C@@H]3CCC4=CC(=O)CCC4=C32)cc1F [drawing 370]	A (A: ≤0.4)
CC(C)(C)C#C[C@]1(O)CC[C@H]2[C@@H]3CCC4=CC(=O)CCC4=C3[C@@H](c3ccc(C(C)(C)C)cc3)C[C@@]21C [drawing 367]	A (A: ≤0.4)
CN(C)c1ccc([C@H]2C[C@@]3(C)[C@@H](CC[C@@]3(O)C#CC3(C)COC3)[C@@H]3CCC4=CC(=O)CCC4=C32)cc1 [drawing 384]	A (A: ≤0.4)
CC(C)C#C[C@]1(O)CC[C@H]2[C@@H]3CCC4=CC(=O)CCC4=C3[C@@H](c3cc(F)c(C(C)C)c(F)c3)C[C@@]21C [drawing 374]	A (A: ≤0.4)
COC(C)(C)C#C[C@]1(O)CC[C@H]2[C@@H]3CCC4=CC(=O)CCC4=C3[C@@H](c3ccc(N4CCCC4)cc3)C[C@@]21C [drawing 380]	A (A: ≤0.4)
CC(C)(C)C#C[C@]1(O)CC[C@H]2[C@@H]3CCC4=CC(=O)CCC4=C3[C@@H](c3cccc(C4CC4)c3)C[C@@]21C [drawing 369]	A (A: ≤0.4)
CC(C)C#C[C@]1(O)CC[C@H]2[C@@H]3CCC4=CC(=O)CCC4=C3[C@@H](c3c(F)cc(N4CCOCC4)cc3F)C[C@@]21C [drawing 373]	A (A: ≤0.4)
CN(C)c1cc(F)c([C@H]2C[C@@]3(C)[C@@H](CC[C@@]3(O)C#CC(C)(C)C)[C@@H]3CCC4=CC(=O)CCC4=C32)cc1F [drawing 376]	A (A: ≤0.4)
CC(C)(C)C#C[C@]1(O)CC[C@H]2[C@@H]3CCC4=CC(=O)CCC4=C3[C@@H](c3ccc4c(c3)OCO4)C[C@@]21C [drawing 378]	A (A: ≤0.4)
Cc1c(F)cc([C@H]2C[C@@]3(C)[C@@H](CC[C@@]3(O)C#Cc3ccc(S(C)(=O)=O)cc3)[C@@H]3CCC4=CC(=O)CCC4=C32)cc1F [drawing 372]	A (A: ≤0.4)
CC(C)(C)C#C[C@]1(O)CC[C@H]2[C@@H]3CCC4=CC(=O)CCC4=C3[C@@H](c3ccc(N4CCN(S(C)(=O)=O)CC4)cc3)C[C@@]21C [drawing 382]	B (B: >0.4)
CCC#C[C@]1(O)CC[C@H]2[C@@H]3CCC4=CC(=O)CCC4=C3[C@@H](c3ccc4c(c3)OCCO4)C[C@@]21C [drawing 377]	A (A: ≤0.4)
COC1CN(c2ccc([C@H]3C[C@@]4(C)[C@@H](CC[C@@]4(O)C#CC(C)(C)C)[C@@H]4CCC5=CC(=O)CCC5=C43)cc2)C1 [drawing 381]	A (A: ≤0.4)

Same assay, conditions: LNAR reporter cell line; in concentrations as low as 10 nM

SMILES	partial AR agonism
CC#C[C@]1(O)CC[C@H]2[C@@H]3CCC4=CC(=O)CCC4=C3[C@@H](c3ccc(N(C)C)cc3)C[C@@]21C [Mifepristone, reference compound]	strong partial AR agonism

Reference: patent US11124537B2, “Inhibitors of glucocorticoid receptor” (ORIC Pharmaceuticals, Inc., priority 2015, dated 2021)
